PubChem BioAssay (NCI)
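Step 1: Grow cells in 96-well plates. Step 2: Expose to compound for 48 hours at 5 concentrations. Step 3: Interpolate endpoints linearly; if unreached, use highest concentration. The concentration for 50% growth inhibition is given as GI50. TGI: total growth inhibition.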

Experiments:
Assay in all cases: NCI-60 cell line screen, 48 h
NCI-H522 lung = system: NCI-H522 lung
UO-31 renal = system: UO-31 renal
SK-OV-3 ovarian = system: SK-OV-3 ovarian
SNB-19 CNS = system: SNB-19 CNS
M14 melanoma = system: M14 melanoma
CCRF-CEM leukemia = system: CCRF-CEM leukemia
HS 578T breast = system: HS 578T breast
HOP-92 NSCLC = system: HOP-92 NSCLC
OVCAR-3 ovarian = system: OVCAR-3 ovarian
IGROV1 ovarian = system: IGROV1 ovarian

Row | SMILES | GI50 (NCI-H522 lung) [µM] | TGI (NCI-H522 lung) [µM] | GI50 (UO-31 renal) [µM] | TGI (UO-31 renal) [µM] | GI50 (SK-OV-3 ovarian) [µM] | TGI (SK-OV-3 ovarian) [µM] | GI50 (SNB-19 CNS) [µM] | TGI (SNB-19 CNS) [µM] | GI50 (M14 melanoma) [µM] | TGI (M14 melanoma) [µM] | GI50 (CCRF-CEM leukemia) [µM] | TGI (CCRF-CEM leukemia) [µM] | GI50 (HS 578T breast) [µM] | TGI (HS 578T breast) [µM] | GI50 (HOP-92 NSCLC) [µM] | TGI (HOP-92 NSCLC) [µM] | GI50 (OVCAR-3 ovarian) [µM] | TGI (OVCAR-3 ovarian) [µM] | GI50 (IGROV1 ovarian) [µM] | TGI (IGROV1 ovarian) [µM]
1 | CC(=O)/C=C/c1ccc(Nc2c3ccccc3nc3occ(Cl)c23)cc1 | 3.43 | 16.1 | 14.2 | > 100 | 8.21 | 65.6 | 8.71 | 30.2 | 4.49 | 18.2 | 2.96 | 19.7 | 5.75 | > 100 | 4.51 | 29.4 | – | – | – | –
2 | CN(C)CCCOc1cccc(NC2=C(Cl)C(=O)C(Nc3cccc(OCCCN(C)C)c3)=C(Cl)C2=O)c1 | 0.172 | 0.437 | 1.45 | 2.76 | 5.45 | 18.3 | 1.78 | 3.32 | 1.33 | 2.74 | 0.402 | 3.26 | 2.11 | 5.4 | 0.58 | 1.28 | 0.188 | 0.355 | – | –
3 | CC(C)(C)[Si](C)(C)OC1[C@@H](CNC(N)=O)O[C@@H](n2cnc3c(NC(=O)Nc4ccccc4)ncnc32)[C@H]1O[Si](C)(C)C(C)(C)C (some centres not stated) | 2.36 | 8.25 | 1.92 | 8.29 | 3.29 | 9.53 | 5.7 | 12.4 | 2 | 8.11 | 1.06 | 2.48 | 1.17 | 3.02 | – | – | 1.12 | 2.31 | 2.12 | 7.36
4 | O=c1c2c(-c3ccccc3)c3ccccc3nc2cnn1-c1ccccc1 | – | > 100 | – | > 100 | – | > 100 | – | > 100 | – | > 100 | – | > 100 | – | – | – | > 100 | – | > 100 | – | > 100
5 | CCOc1cccc2c1N[S@@](=O)S2 | – | > 100 | – | > 100 | – | > 100 | – | > 100 | – | > 100 | – | > 100 | – | – | – | > 100 | – | > 100 | – | > 100
6 | CC(NC(=O)Cc1ccc(C(F)(F)P(=O)(OCc2ccc([N+](=O)[O-])o2)N(C)CCCCCl)cc1)c1ccc(OCC2CCCCC2)c(C(N)=O)c1 (configuration not stated) | 3.86 | 10.2 | 7.74 | 21.9 | 19.3 | 43.5 | 8.97 | 29.7 | 0.398 | 1.99 | – | – | 8.21 | 38.4 | 16.5 | 37.2 | 2.31 | 9.82 | 9.93 | 25.5
7 | CCCC1(CN2c3ccccc3Sc3ccc(Cl)cc32)CCN(CC)C1 (configuration not stated) | 1.9 | 3.64 | 1.51 | 2.97 | 1.77 | 3.45 | 2 | 3.78 | 1.86 | 3.49 | 3.49 | > 100 | 1.83 | 4.88 | – | – | 1.61 | 3.09 | 1.92 | 3.69
8 | COc1cc2c(c3c1c(=O)c1ccccc1n3C)C=CC(C)(C)O2 | – | 50.7 | – | > 100 | – | > 100 | – | > 100 | – | > 100 | – | > 100 | – | – | – | > 100 | – | > 100 | – | > 100
9 | CC(=O)OC(C(=O)[O][Sn]([CH3])([CH3])[CH3])c1ccccc1 (configuration not stated) | 19.9 | 62.6 | > 100 | > 100 | > 100 | > 100 | > 100 | > 100 | > 100 | > 100 | 63.4 | > 100 | – | – | > 100 | > 100 | > 100 | > 100 | > 100 | > 100
10 | C#CCN(N=O)C(=O)ON1C(=O)CCC1=O | – | > 100 | – | > 100 | – | > 100 | – | > 100 | – | > 100 | – | > 100 | – | – | – | > 100 | – | > 100 | – | > 100
11 | COc1cccc(CNc2ncnc3c2ncn3C2OC(CO)C(O)C2O)c1O (configuration not stated) | 0.0848 | – | 0.123 | > 28.6 | 0.179 | 0.932 | 0.48 | > 100 | 0.248 | > 100 | – | > 100 | 0.108 | 0.577 | – | – | 0.539 | 4.11 | 0.206 | –
12 | C=C1C(=O)OC2C1CCC(C)C1(O)C=CC(=O)C21C (configuration not stated) | – | – | – | > 10 | – | > 10 | – | > 10 | – | – | – | > 10 | – | > 10 | – | > 10 | – | > 10 | – | > 10
13 | COc1ccc(C(=O)c2sc3nc(-c4ccccc4OC)ccc3c2N)cc1OC | 2.5 | 8.89 | 5.26 | > 100 | 30.6 | > 100 | 22.8 | > 100 | 6.05 | > 100 | 4.07 | > 100 | 4.26 | 74.2 | – | – | 18.3 | > 100 | 20.3 | > 100
14 | C1=Cc2nc1c(-c1ccccc1)c1ccc([nH]1)c(-c1ccccc1)c1nc(c(-c3ccccc3)c3ccc([nH]3)c2-c2ccccc2)C=C1 | – | > 100 | – | > 100 | – | > 100 | – | > 100 | – | > 100 | – | > 100 | – | – | – | > 100 | – | > 100 | – | > 100
15 | CN(C)c1ccc(/C=C(\NC(=O)c2ccccc2)c2nc3ccc4c(c3[nH]2)C(=O)c2ccccc2C4=O)cc1 | – | > 100 | – | 7.37 | – | > 100 | – | > 100 | – | > 100 | – | > 100 | – | – | – | 97.3 | – | > 100 | – | > 100
16 | CC(/C=C/C(O)=C1/C(=O)CNC1=O)=C\[C@@H](C)[C@H]1O[C@@]2(C)O[C@H](C(=O)[C@@H]3O[C@@]32C)[C@@H]1C | – | – | – | 33.2 | – | 46.8 | – | 55.4 | – | > 100 | – | > 100 | – | 52.1 | – | – | – | 44.6 | – | 44.9
17 | CCCCCCC(O)CC[C@H]1CCC[C@@H](C)N1 (some centres not stated) | – | > 100 | – | > 100 | – | > 100 | – | < 10 | – | > 100 | – | > 100 | – | – | – | > 100 | – | < 10 | – | > 100
18 | COC/N=C(\NC#N)NCOC | – | > 100 | – | > 100 | – | > 100 | – | > 100 | – | > 100 | – | > 100 | – | – | – | > 100 | – | > 100 | – | > 100
